The text below walks through data of ChEMBL document CHEMBL3046277, “Inheritance mode and realized heritability of resistance to imidacloprid in the brown planthopper, Nilaparvata lugens (Stål) (Homoptera: Delphacidae)” (2009).

Converted amounts (≈) assume the structure as drawn.

Holding throughout (type): functional
Assay [1] relates to Nilaparvata lugens. The experiment in a line: Resistance ratio of LC50 for Nilaparvata lugens (brown planthopper) F1' progeny to LC50 for imidacloprid-susceptible brown planthopper.
The test system of assay [2] is Nilaparvata lugens. The assay is described as follows: Resistance ratio of LC50 for Nilaparvata lugens (brown planthopper) F1 progeny to LC50 for imidacloprid-susceptible brown planthopper.
Assay [3] deals with Nilaparvata lugens. The experiment in a line: Insecticidal activity against Nilaparvata lugens (brown planthopper) offspring obtained after 23 selected generations in rice stem assessed as mortality treated for 30 secs prior to nymph infestation measured at 96 hr post-drug treatment by rice-stem dipping method. The settings on record: read-out: Log10LC50 (converted).
Assay [4] deals with Nilaparvata lugens. The experiment in a line: Insecticidal activity against Nilaparvata lugens (brown planthopper) F1 progeny generated from reciprocal cross between female imidacloprid-susceptible strain and male imidaclporid-resistant strain in rice stem assessed as mortality treated for 30 secs prior to nymph infestation measured at 96 hr post-drug treatment by rice-stem dipping method.

Assay [5] concerns Nilaparvata lugens. The assay is described as follows: Resistance ratio of LC50 for imidacloprid-resistance Nilaparvata lugens (brown planthopper) to LC50 for imidacloprid-susceptible brown planthopper.
For assay [6], the system named is Nilaparvata lugens. The assay is described as follows: Insecticidal activity against Nilaparvata lugens (brown planthopper) F1' progeny generated from reciprocal cross between male imidacloprid-susceptible strain and female imidaclporid-resistant strain in rice stem assessed as mortality treated for 30 secs prior to nymph infestation measured at 96 hr post-drug treatment by rice-stem dipping method.

The subject of assay [7] is Nilaparvata lugens. The experiment in a line: Insecticidal activity against 23 generation selection pressure-induced imidacloprid-resistance Nilaparvata lugens (brown planthopper) at third instar nymph stage in rice stem assessed as mortality treated for 30 secs prior to nymph infestation measured at 96 hr post-drug treatment by rice-stem dipping method.
For assay [8], the system named is Nilaparvata lugens. The experiment in a line: Insecticidal activity against third instar nymph stage of imidacloprid-susceptible Nilaparvata lugens (brown planthopper) in rice stem assessed as mortality treated for 30 secs prior to nymph infestation measured at 96 hr post-drug treatment by rice-stem dipping method.
Assay [9] deals with Nilaparvata lugens. The experiment in a line: Insecticidal activity against Nilaparvata lugens (brown planthopper) parental generation in rice stem assessed as mortality treated for 30 secs prior to nymph infestation measured at 96 hr post-drug treatment by rice-stem dipping method. The settings on record: read-out: Log10LC50 (converted).

Regarding `O=[N+]([O-])/N=C1\NCCN1Cc1ccc(Cl)nc1` [IMIDACLOPRID], the RatioLC50 was determined as 274.45 in assay [1], 233.45 in assay [2] and 964.09 in assay [5]. In addition, the LC50 in [3] is 9.43 mM; in assay [4], 25.7 µg/mL (≈ 100 µM); in assay [6], 30.2 µg/mL (≈ 118 µM); in assay [7], 106 µg/mL (≈ 415 µM); in [8] it was 0.11 µg/mL (≈ 0.43 µM); in [9], 62.5 mM.
